According to US20250235507A1, “INHALABLE POROUS MICROSPHERE LOADED WITH RECOMBINANT HUMAN RELAXIN-2 AND PREPARATION METHOD THEREFOR” (SHANDONG UNIVERSITY, priority 2023, published 2025):

Legend:
[1] = test system: bleomycin-induced pulmonary fibrosis mouse model; experiment: Anti-fibrosis effect in bleomycin-induced pulmonary fibrosis mouse model (micro-CT, weight, lung wet weight); assay type: in vivo
Method: (§1) C57BL/6J mice (20±2 g, female) were purchased from Beijing Life River Experimental Animal Technology Co., Ltd, and were housed in specific pathogen-free animal facilities. For the induction of fibrosis, mice were treated with 100 μL of bleomycin (with concentration of 1 mg/mL) at a dose of 5 mg/Kg via tracheal intubation.
(§2) After two weeks of bleomycin administration, mice were divided into four groups. In the RLX@PMs group, porous microspheres loaded with RLX were administered at a single dose of 70 μg/mouse (including RLX) to each mouse via nebulization. Similarly, in the RLX-free group, the RLX-free solution was administered via nebulization at a dose of 5 μg/mouse daily for two weeks. In addition, a blank control group only nebulized with PBS (PBS group) was also set up. Pirfenidone was used as a positive control, and was administered via intragastric gavage to mice at a dose of 300 mg/kg daily for two weeks (PFD group). The weight of mice was recorded once every two days.
For further examination, after anesthesia, whole-lung imaging was performed using a micro-computed tomography (micro-CT) imaging system for small animals (scanning parameters: scan resolution, 18 μm; voltage, 70 kV; current, 100 μA). After treatment, all mice were euthanized and tissues were collected for further analysis, and lung coefficient was calculated by the wet weight of lungs.

[2] = test system: bleomycin-induced pulmonary fibrosis mouse model; experiment: Lung histopathology: H&E, Masson trichrome and Sirius red staining; assay type: in vivo, C57BL/6J mice
Method: as §1, §2
In addition to in vivo imaging examination, we also used hematoxylin and eosin (H&E) staining, Masson's trichrome staining and Sirius red staining to detect the histological changes and collagen deposition in the lungs according to the manufacturer's instructions. After the mice were euthanized, the whole lung tissues were collected and fixed in 4% paraformaldehyde overnight. Subsequently, the tissues were subjected to gradient dehydration according to the standard procedure and embedded with paraffin. The lung tissues of mice were embedded in paraffin and cut into 3 μm sections, followed by H&E staining. […] The stained sections were imaged using a VS120 virtual slide microscope, and the severity of interstitial fibrosis was evaluated at 100× magnification by measuring the percentage of blue stained area. […] After staining, the stained sections were scanned by a polarization microscope, and the degree of collagen deposition in the lung was evaluated based on the image. All collagen density data were quantified by ImageJ software.

[3] = mice
Method: Real-time fluorescence images were obtained by the small animal in vivo imaging system at regular intervals. The same treatment was carried out using the same dose of rhodamine B-free as the control group.

| SMILES | lung structure / fibrosis by micro-CT ([1]; after 4 weeks of treatment) | mortality ([1]; bleomycin mice, PFD 300 mg/kg daily, intragastric) | weight change of mice ([1]; weight recorded every two days) | collagen accumulation / deposition (Masson trichrome staining) ([2]; fibrosis around bronchi, versus PBS group) | airway remodeling, angiogenesis and parenchymal inflammation (lung histopathology) ([2]; increased by bleomycin exposure) | therapeutic effect on collagen deposition (Sirius red staining) ([2]; polarization microscope) | site of deposition (lung versus gastrointestinal tract), fluorescence signals ([3]; nebulized inhalation, in vivo imaging) | time until fluorescence signals disappeared completely ([3]; single inhalation) |
| --- | --- | --- | --- | --- | --- | --- | --- | --- |
| Cc1ccc(=O)n(-c2ccccc2)c1 [Pirfenidone] | a certain degree of fibrosis | died within three weeks | progressive weight loss | lower than that of the PBS group | attenuated these effects | slight therapeutic effect |  |  |
| CCN(CC)c1ccc2c(-c3ccccc3C(=O)O)c3ccc(=[N+](CC)CC)cc-3oc2c1 [rhodamine B-free, rhodamine B] |  |  |  |  |  |  | higher | ≤ 2 weeks |
